From patent US4912116A, “Propiophenone derivatives for treatment of pollakiuria (frequency urination)” (Hokuriku Pharmaceutical Co., Ltd., priority 1986, dated 1990)

Tested on: cystometrogram (time to micturition)
Experiment: Effects on the cystometrogram (Dog)
Type: in vivo, Mongrel adult dogs
Conditions: i.v., dogs, mean ± S.E., saline 6.0 ± 13.8
Experimental: statistical analysis: Each data of Experiment 1-6 represents the mean±S.E. statistical analysis of the data was performed using student's t-test.
Mongrel adult dogs weighing about 10 kg were anesthetized with thiopental (20 mg/kg, i.v.) and immobilized with gallamine (2 mg/kg, i.v.), and fixed on their back.
In the experiment, infusion of pentobarbital (3 mg/kg/hr, i.v.) and gallamine (3 mg/kg i.v.) were continuted, and artifical respiration was performed (20 times/min, 20 ml air/kg).
After midline incision of the abdomen, the ureters were ligated and polyethylene tubes were inserted into the kidney side and the urinary bladder side. Urine was led out of the body from the kidney side, and warm saline was infused using a continuous infusion pump from the urinary bladder side.
Then, a catheter was inserted into the bladder dome and connected to a pressure transducer. Intravesical pressure was recorded on a recorder.
The infusion rate of saline was changed (6-35 ml/min) so as to induce the time to micturition from the saline infusion (time to micturition) at about five minutes.
The drug was administered (through a cannula inserted into the right femoral vein) at the second minute before the last time to micturition, and the delayed time of micturition was evaluated.

CCc1ccc(C(=O)C(C)CN2CCCC2)cc1 (centres unmarked) [Compound 1]
Delayed time of micturition (1 mg/kg): 13.2 ± 21.0 s | Delayed time of micturition (3 mg/kg, * p < 0.05 vs last time to micturition): 50.4 ± 15.0 s
